Data: US20120190751A1, “COMPOUNDS FOR TREATMENTS OF INFLAMMATION” (ANA-MAR AB, priority 2009, published 2012)
Where a name gives a salt, the structure may show the parent alone.

biological target: 5HT2B receptor (Homo sapiens, UniProt P41595); test: not given; conditions: 5HT2B receptor antagonists, Table 1; cited from earlier work
Sequence (P41595 whole entry): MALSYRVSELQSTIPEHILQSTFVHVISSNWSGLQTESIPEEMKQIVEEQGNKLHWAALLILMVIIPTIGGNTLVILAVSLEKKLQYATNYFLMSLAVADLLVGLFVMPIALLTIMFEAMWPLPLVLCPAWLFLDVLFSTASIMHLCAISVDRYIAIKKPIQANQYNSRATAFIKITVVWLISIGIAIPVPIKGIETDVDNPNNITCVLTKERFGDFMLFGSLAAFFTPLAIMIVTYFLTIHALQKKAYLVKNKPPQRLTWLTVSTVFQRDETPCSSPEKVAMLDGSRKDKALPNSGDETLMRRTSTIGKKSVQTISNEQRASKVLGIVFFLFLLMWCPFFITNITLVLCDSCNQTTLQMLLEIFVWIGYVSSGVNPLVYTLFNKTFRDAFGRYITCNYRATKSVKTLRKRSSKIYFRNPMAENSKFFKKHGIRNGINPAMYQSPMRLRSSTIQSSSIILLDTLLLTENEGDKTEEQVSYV

| SMILES | Affinity |
| --- | --- |
| CN1CCC2CN3CCc4cccc(c43)C2C1 (single isomer, unassigned; (+)) [SDZ SER-082, (+)-cis-4,5,7a,8,9,10,11,11a-octahydro-7H-10-methylindolo[1,7-bc][2,6]-naphthyridine] | 6.7 pKi |
| Cc1cc([N+](=O)[O-])c(N2CCN(Cc3ccccc3)CC2)cc1N [EGIS-7625, 1-benzyl-4-[(2-nitro-4-methyl-5-amino)-phenyl]-piperazine] | 9.0 pKi |
| CC(O)C(C)OC(=O)C1CC2c3cccc4[nH]cc(c34)CC2N(C)C1 (stereo not drawn) [LY86057] | 7.9 pKi |
| OC(c1ccccc1)C1CCN(CCc2ccccc2)CC1 (stereo not drawn) [MDL-11,939, α-phenyl-1-(2-phenylethyl)-4-piperidinemethanol] | 5.5 pKi |
| COc1cc(OC)c(C(=O)CCCCN2CCC3(CC2)NC(=O)NC3=O)cc1NS(=O)(=O)c1ccc(C(F)(F)F)cc1 [RS-102221] | 6.0-6.1 pKi |
| CC(C)c1cc(-c2ccc(F)c3ccccc23)nc(N)n1 [RS-127445-190] | 9.5 pKi |
| Cn1ccc2cc(NC(=O)Nc3cccnc3)ccc21 [SB 200646, N-(1-Methyl-1H-indol-5-yl)-N′-3-pyridinylurea] | 7.4 pKi |
| Cn1ccc2cc3c(cc21)CCN3C(=O)Nc1cccnc1 [SB 206553, 5-methyl-1-(3-pyridylcarbamoyl)-1,2,3,5-tetrahydrolpyrrolo[2,3-f]indole] | 7.6-8.5 pKi |
| Cc1cc2c(cc1Cl)N(C(=O)Nc1cccc3ncccc13)CC2 [SB 215505, 6-chloro-5-methyl-1-(5-quinolylcarbamoyl)indoline] | 8.3 pKi |
| CSc1cc2c(cc1C(F)(F)F)N(C(=O)Nc1cccnc1)CC2 [SB 221284, 5-(methylthio)-1-(3-pyridylcarbamoyl-6-trifluoromethyl)indoline] | 8.6 pKi |
| Cc1nc(-c2ccc(-c3ccc(C(=O)N4CCc5cc6c(cc54)C4(CCN(C)CC4)CO6)cc3)c(C)c2)no1 [SB 224289, 1′-methyl-5-[[2′-methyl-4′-(5-methyl-1,2,4-oxadiazol-3-yl)biphenyl-4-yl]carbonyl]-2,3,6,7-tetrahydrospiro[furo[2,3-f]indole-3,4′-piperidine hydrochloride] | 5.9 pKi |
| COc1cc2c(cc1C(F)(F)F)N(C(=O)Nc1cc(F)cc(-c3cccnc3)c1)CC2 [SB 228357, 1-5[-fluoro-3-(3-pyridyl)phenyl-carbamoyl]-5-methoxy-6-trifuoromethylindoline] | 8.0-8.1 pKi |
| COc1ccc2cccc(CCNC(C)=O)c2c1 [agomelatine, N-[2-(7-methoxynaphthalen-1-yl)ethyl]acetamide] | 6.6 pKi |
| CC(C)n1cc2c3c(cccc31)[C@H]1CC(C(=O)NC3CCCCC3)CN(C)[C@@H]1C2 (stereo partly drawn) [amesergide, N-Cyclohexyl-1-isopropyl-6-methylergoline-8-carboxamide] | 8.0 pKi |
| CN1CCc2cccc3c2C1Cc1ccc(O)c(O)c1-3 (stereo not drawn) [apomorphine, 5,6,6a,7-Tetrahydro-6-methyl-4H-dibenzo[de,g]quinolin-10,11-diol] | 6.9 pKi |
| CC(C)C[C@H]1C(=O)N2CCC[C@H]2[C@]2(O)O[C@](NC(=O)[C@@H]3C=C4c5cccc6[nH]c(Br)c(c56)C[C@H]4N(C)C3)(C(C)C)C(=O)N12 [bromocriptine] | 7.3 pKi |
| NCCC(Oc1ccc(C(F)(F)F)cc1)c1ccccc1 (stereo not drawn) [norfluoxetine] | 5.3 pKi |
| CCCCN1CCC(CNC(=O)c2c3n(c4ccccc24)CCCO3)CC1 [piboserod, N-((1-Butyl-4-piperidyl)-methyl)-3,4-dihydro-2H-(1,3)oxazino(3,2-a)-indole-10-carboxamide] | 6.6 pKi |
| c1cnc(N2CCN(Cc3ccc4c(c3)OCO4)CC2)nc1 [piribedil, 2-[4-(1,3-benzodioxol-5-ylmethyl)piperazin-1-yl]pyrimidine] | 5.9 pKi |
| Cc1nc2sccn2c(=O)c1CCN1CCC(=C(c2ccc(F)cc2)c2ccc(F)cc2)CC1 [ritanserin, 4-[2-[4-[bis(4-fluorophenyl)methylidene]-1-piperidyl]ethyl]-3-methyl-9-thia-2,6-diazabicyclo[4.3.0]nona-1,3,7-trien-5-one] | 8.7-9.2 pKi |
| Oc1ccc2[nH]cc(CCCCN3CC=C(c4ccccc4)CC3)c2c1 [roxindole, 3-[4-(4-phenyl-3,6-dihydro-2H-pyridin-1-yl)butyl]-1H-indol-5-ol] | 7.5 pKi |
| COc1cccc(CCc2ccccc2OCC(CN(C)C)OC(=O)CCC(=O)O)c1 (stereo not drawn) [sarpogrelate, 4-[1-dimethylamino-3-[2-[2-(3-methoxyphenyl)ethyl]phenoxy]-propan-2-yl]oxy-4-oxo-butanoic acid] | 6.6 pKi |
| O=C(CCCN1CCC2(CC1)C(=O)NCN2c1ccccc1)c1ccc(F)cc1 [spiperone, 8-[4-(4-fluorophenyl)-4-oxo-butyl]-1-phenyl-1,3,8-triazaspiro[4.5]decan-4-one] | 5.9-6.5 pKi |
| O=C1NCN(c2ccccc2)C12CCN(CC1COc3ccccc3O1)CC2 (stereo not drawn) [spiroxatrine, 8-(7,10-dioxabicyclo[4.4.0]deca-1,3,5-trien-8-ylmethyl)-4-phenyl-2,4,8-triazaspiro[4.5]decan-1-one] | 6.3-6.8 pKi |
| CCN(CC)C(=O)N[C@H]1C[C@@H]2c3cccc4[nH]cc(c34)C[C@H]2N(C)C1 [terguride, N,N-diethyl-N′-[(8α)-6-methylergolin-8-yl]urea] | 8.2 pKi |

same assay, conditions: cited from earlier work

| SMILES | Affinity |
| --- | --- |
| CC(O)C(C)OC(=O)[C@@H]1C[C@@H]2c3cccc4c3c(cn4C(C)C)C[C@H]2N(C)C1.O=C(O)/C=C\C(=O)O (stereo partly drawn) [LY53857, 6-Methyl-1-(1-methylethyl)ergoline-8β-carboxylic acid 2-hydroxy-1-methylpropyl ester maleate salt] | 8.2 pKi |
| CC(C)c1cc(-c2ccc(F)c3ccccc23)nc(N)n1 [RS-127445] | 9.0 pKi |
| Cc1cc2c(cc1Cl)N(C(=O)Nc1ccc(Oc3cccnc3C)nc1)CC2 [SB 242084, 6-chloro-5-methyl-1-[6-(-methylpyridin-3-yloxy)pyridin-3-ylcarbomyl]indoline] | 6.8-7.0 pKi |

test system: antigen-induced arthritis; test: not given; conditions: Andersson et al. 2000; cited from earlier work

| SMILES | effect in the AIA model (literature) |
| --- | --- |
| CN(Cc1cnc2nc(N)nc(N)c2n1)c1ccc(C(=O)N[C@@H](CCC(=O)O)C(=O)O)cc1 [methotrexate] | anti-arthritic effect |

test system: rat synoviocytes; test: IL-6 release from LPS-stimulated rat synoviocytes; assay type: cell-based; conditions: 1 μM 5-HT + LPS 50 ng/ml; test substance 0.1, 1 or 10 μM; 72 hours; FIG. 7A
Procedure: Pannus from the inflamed knee of rats with antigen-induced arthritis (AIA) (see description of this model below; Andersson, S. E et al., (1998), J. Rheumatology 25: 1772-1777) was isolated three to five days after challenge, stored in PBS supplemented with 100 U/ml Penicillin-Streptomycin (PEST, Invitrogen Corporation) and 2.5 μg/ml Fungizone (Amphotericin B, Invitrogen) until it was further processed within a couple of hours. The PBS was discarded and the tissue cut in small pieces followed by digestion in a collagenase solution (400 U/ml; type 1 CLS-1, Worthington) for 3 hours at 37° C., 5% CO2. The suspension was filtered through a nylon mesh (70 μm), washed with tissue culture medium (RPMI-1640 with L-glutamine, Invitrogen, supplemented with 10% fetal bovine serum (FBS) and 100 U/ml PEST and 2.5 μg/ml Fungizone) and centrifuged (257 g). The cells were resuspended in tissue culture medium and seeded in cell culture flasks (T25, TPP). After overnight culture, nonadherent cells were removed by exchanging the medium, the cells were incubated at 37° C., 5% CO2, the medium was exchanged every third day until confluence was reached (7-10 days). The culture consisted of a mixed cell population with the principal constituents being fibroblasts and macrophages (Andersson, S. E. et al. (2000), Eur. J. Pharm. Sci 9: 333-343).
The cells were counted and reseeded at a density of 10000 cells/0.2 ml in 96-well cell culture plates (Nunc). After overnight culture the cells were stimulated with 50 ng/ml Lipopolysaccharide (LPS, E. coli 055:B5, Sigma) with simultaneous addition of 0.1, 1 and 10 μM N-(2-chloro-3,4-dimethoxybenzylideneamino)guanidine and 1 μM of 5-HT2 receptor agonists (triplicates). The cells were incubated for 72 hours after which the supernatants were collected and analyzed for IL-6 (OptEIA™ Set Rat IL-6). The effect of treatment on cell viability was determined using the cell proliferation reagent, WST-1 (Roche Diagnostics).
Inflamed knee joints of rats with antigen-induced arthritis (AIA) were dissected four days after intra-articular challenge with antigen. Freshly isolated pannus tissue was collected in phosphate-buffered saline (PBS) supplemented with 100 U/ml penicillin, streptomycin (PEST, Invitrogen) and 2.5 μg/ml Fungizone (Amphotericin B, Invitrogen), finely minced with a pair of scissors and digested with 400 U/ml collagenase (type 1 CLS-1, Worthington) in RPMI 1640 (Gibco) supplemented with PEST and fungizone (2.5 μg/ml) for 3 hours. The cell suspension was filtered through a 70 μm nylon mesh and the cells collected by centrifugation at 257×g, 10 min. The cells were resuspended in RPMI 1640 supplemented with 10% FBS (Gibco), PEST and fungizone (culture medium), plated in T25 flasks (TPP Cat#90026). After overnight incubation nonadherent cells were removed and the culture medium was replaced every third day until the cells approached confluency (normally achieved within 7-10 days). At near-confluency, the cells were washed with PBS and harvested by trypsination. After washing in PBS the cells were resuspended in culture medium and seeded at 10.000 cells/well/0.2 ml in 96 well plates (Nunc cat#167008). After overnight culture the culture medium was replaced with fresh medium and 50 ng/ml LPS (Sigma, L6529) together with different concentrations of 5-HT, 5-HT2 receptor agonists and/or antagonists and N-(2-chloro-3,4-dimethoxybenzylideneamino)guanidine. The cells were incubated for 72 hours after which the supernatants were collected and analyzed for IL-6 (BD OptEIA™ Set). The effect of treatment on cell viability was determined using the cell proliferation reagent, WST-1 (Roche Diagnostics). In another experiment rat synoviocytes were incubated with 50 ng/ml LPS for 2 or 22 hours were after the levels of 5-HT was analysed in the cell culture medium using a Serotonin ELISA kit (IBL International, RE59121). We also incubated rat synoviocytes with 5-HT (10 μM) and measured the gene expression of 5-HT2B and 5-HT2C.

| SMILES | IL-6 release induced by 5-HT and LPS |
| --- | --- |
| CC(C)c1cc(-c2ccc(F)c3ccccc23)nc(N)n1 [RS-127445] | clearly reduced the IL-6 release |
| Cc1cc2c(cc1Cl)N(C(=O)Nc1ccc(Oc3cccnc3C)nc1)CC2 [SB 242084, 6-chloro-5-methyl-1-[6-(-methylpyridin-3-yloxy)pyridin-3-ylcarbomyl]indoline] | clearly reduced the IL-6 release |

same assay, conditions: 1 μM agonist in the presence of LPS 50 ng/ml; 72 hours

| SMILES | IL-6 release on agonist stimulation |
| --- | --- |
| CC(N)Cc1c[nH]c2ccc(OCc3cccs3)cc12 (stereo not drawn) [BW 723C86] | induces a response in IL-6 production |
| NCCc1c[nH]c2ccc(O)cc12 [Example 5-HT, 5-Hydroxytryptamine] | clear increase in IL-6 release |
